From publication PMC8882856, “The affinity and selectivity of α‐adrenoceptor antagonists, antidepressants and antipsychotics for the human α2A, α2B, and α2C‐adrenoceptors and comparison with human α1 and β‐adrenoceptors” (Pharmacology Research & Perspectives, 2022)
pIC50, pKd: −log10 of the molar value. Like-named read-outs stand apart in the source and are kept apart here.

What was measured:
[1] = target: human β2‐adrenoceptor (Homo sapiens, UniProt P07550); format: binding; settings: for pKd: this study, read-out: β2‐adrenoceptor affinity; for IC50: read-out: IC50 (log) β2, IC50>top concentration used (converted)
[2] = target: T1, human α2B‐adrenoceptor (Homo sapiens, UniProt P18089)
T1 sequence (P18089 1-450): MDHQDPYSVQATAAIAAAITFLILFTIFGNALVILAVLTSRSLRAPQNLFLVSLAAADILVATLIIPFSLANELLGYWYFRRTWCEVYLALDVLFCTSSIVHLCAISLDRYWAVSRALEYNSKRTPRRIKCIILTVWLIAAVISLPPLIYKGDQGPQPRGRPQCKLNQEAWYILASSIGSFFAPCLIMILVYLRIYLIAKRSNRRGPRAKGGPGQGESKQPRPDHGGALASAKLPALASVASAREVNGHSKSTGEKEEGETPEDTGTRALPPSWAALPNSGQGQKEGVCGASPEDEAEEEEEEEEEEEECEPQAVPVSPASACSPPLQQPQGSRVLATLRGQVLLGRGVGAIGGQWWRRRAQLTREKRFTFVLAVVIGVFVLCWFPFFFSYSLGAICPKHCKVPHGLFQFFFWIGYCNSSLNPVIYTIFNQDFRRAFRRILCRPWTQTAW

[3] = target: T2, human α2C‐adrenoceptor (Homo sapiens, UniProt P18825)
T2 sequence (P18825 1-462): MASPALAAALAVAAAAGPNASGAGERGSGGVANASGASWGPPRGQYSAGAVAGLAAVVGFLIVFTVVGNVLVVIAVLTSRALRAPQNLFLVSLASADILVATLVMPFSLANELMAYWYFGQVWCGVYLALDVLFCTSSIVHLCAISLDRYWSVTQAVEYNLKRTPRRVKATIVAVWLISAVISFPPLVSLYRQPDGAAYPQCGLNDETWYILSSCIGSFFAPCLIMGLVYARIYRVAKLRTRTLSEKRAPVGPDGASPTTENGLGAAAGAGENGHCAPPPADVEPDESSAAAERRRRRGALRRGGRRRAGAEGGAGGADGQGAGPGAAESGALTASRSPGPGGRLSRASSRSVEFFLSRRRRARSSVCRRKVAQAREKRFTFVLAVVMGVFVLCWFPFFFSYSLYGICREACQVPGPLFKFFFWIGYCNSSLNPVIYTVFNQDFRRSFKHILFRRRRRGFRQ

[4] = target: T3, human β1‐adrenoceptor (Homo sapiens, UniProt P08588); settings: for Log KD β1: mean ± s.e.mean
[5] = target: human α2A‐adrenoceptors; settings: cited from earlier work
[6] = target: human α1A‐adrenoceptor; parameters: method as in PMID 32608144; settings: identical whole cell method; ref [33]; read-out: α1A‐adrenoceptor affinity; cited from earlier work
[7] = target: T4, human α2A‐adrenoceptor (Homo sapiens, UniProt P08913); experiment: cell-based
T4 sequence (P08913 1-465): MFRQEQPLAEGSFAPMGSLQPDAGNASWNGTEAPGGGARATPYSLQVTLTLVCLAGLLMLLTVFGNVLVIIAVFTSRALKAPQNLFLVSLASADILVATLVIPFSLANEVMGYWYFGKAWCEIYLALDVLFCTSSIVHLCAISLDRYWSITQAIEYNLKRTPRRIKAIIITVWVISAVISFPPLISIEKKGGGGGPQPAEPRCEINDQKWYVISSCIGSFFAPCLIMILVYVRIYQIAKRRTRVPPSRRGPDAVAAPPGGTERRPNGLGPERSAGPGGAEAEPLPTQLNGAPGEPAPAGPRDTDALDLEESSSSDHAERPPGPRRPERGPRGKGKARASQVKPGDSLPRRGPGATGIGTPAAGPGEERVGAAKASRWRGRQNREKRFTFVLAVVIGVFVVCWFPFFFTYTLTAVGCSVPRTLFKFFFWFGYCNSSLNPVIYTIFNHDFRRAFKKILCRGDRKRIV

[8] = target: T2, human α2C‐adrenoceptor; experiment: cell-based
[9] = target: T3, human β1‐adrenoceptor; experiment: cell-based
[10] = target: T1, human α2B‐adrenoceptor; experiment: ^3H‐rauwolscine whole cell competition binding, CHO‐α2B cells; settings: for Selectivity ratio α2A vs α2B (higher affinity for α2B) / Selectivity ratio α2B vs α2C (higher affinity for α2B): ratio of KD values
[11] = target: T1, human α2B‐adrenoceptor; experiment: cell-based
[12] = target: T2, human α2C‐adrenoceptor; experiment: ^3H‐rauwolscine whole cell competition binding, CHO‐α2C cells; settings: for Selectivity ratio α2A vs α2C (higher affinity for α2C) / Selectivity ratio α2B vs α2C (higher affinity for α2C): ratio of KD values
[13] = target: T4, human α2A‐adrenoceptor; experiment: ^3H‐rauwolscine whole cell competition binding, CHO‐α2A cells
[14] = target: T4, human α2A‐adrenoceptor
[15] = ^3H‐CGP12177 whole cell binding, log values, mean ± s.e.mean, ^app = apparent KD, 'no binding to' = log top concentration
[16] = ^3H‐CGP12177 whole cell binding, log values, ^app = apparent KD, 'no binding to' = log top concentration

Sequence of human β2‐adrenoceptor (P07550 whole entry): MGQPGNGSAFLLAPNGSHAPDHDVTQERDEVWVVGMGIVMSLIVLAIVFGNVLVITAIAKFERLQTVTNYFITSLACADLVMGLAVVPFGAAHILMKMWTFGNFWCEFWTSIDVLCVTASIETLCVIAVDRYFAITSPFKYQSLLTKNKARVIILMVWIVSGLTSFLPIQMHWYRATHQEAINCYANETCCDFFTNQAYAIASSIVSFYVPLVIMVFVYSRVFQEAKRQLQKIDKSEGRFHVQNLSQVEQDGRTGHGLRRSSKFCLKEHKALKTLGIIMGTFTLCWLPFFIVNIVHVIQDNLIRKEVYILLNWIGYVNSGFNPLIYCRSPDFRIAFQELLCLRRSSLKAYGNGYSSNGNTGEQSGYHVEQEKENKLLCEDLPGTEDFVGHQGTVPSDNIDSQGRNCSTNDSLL
T3 sequence (P08588 whole entry): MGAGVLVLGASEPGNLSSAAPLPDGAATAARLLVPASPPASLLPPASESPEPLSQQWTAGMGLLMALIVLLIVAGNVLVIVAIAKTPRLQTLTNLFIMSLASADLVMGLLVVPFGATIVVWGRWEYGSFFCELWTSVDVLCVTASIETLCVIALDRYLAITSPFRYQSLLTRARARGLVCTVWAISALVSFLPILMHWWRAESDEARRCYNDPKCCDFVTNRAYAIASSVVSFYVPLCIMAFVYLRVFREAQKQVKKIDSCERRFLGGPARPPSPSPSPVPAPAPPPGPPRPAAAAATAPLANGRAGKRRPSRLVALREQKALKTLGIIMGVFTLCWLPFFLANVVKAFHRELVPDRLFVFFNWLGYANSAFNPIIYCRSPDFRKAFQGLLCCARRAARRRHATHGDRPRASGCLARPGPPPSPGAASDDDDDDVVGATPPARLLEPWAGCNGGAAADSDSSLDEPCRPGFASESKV

With COc1cccc2c1CCC[C@H]2CN(C)CCc1ccc2ccoc2c1.CS(=O)(=O)O [A80426] the “Log KD β2” value [1, 15] was −5.88 ± 0.04, the pKd [2] was 6.52 and the pKd [3] was 7.46.
For COc1cc2nc(N3CCN(C(=O)c4ccco4)CC3)nc(N)c2cc1OC [prazosin], the Kd ([1]; ^3H‐CGP12177 whole cell binding, log values, mean ± s.e.mean, ^app = apparent KD, 'no binding to' = log top concentration, read-out: Log KD β2 (converted)) was 7.94 µM, the “Log KD β1” value [4, 16] was “No binding to −4” and the “Log KD β1” value ([4]; given as log KD (negative values), 3H-CGP12177 whole cell binding, CHO cells) was “No binding to -4”. For the same molecule, the pKd ([5]; ref [6], read-out: affinity at human α2A‐adrenoceptors) was 4.80 and the pKd ([5]; ref [21], [28], read-out: affinity at human α2A‐adrenoceptors) was 6.52.
In the case of C[C@H](Cc1cc2c(c(C(N)=O)c1)N(CCCO)CC2)NCCOc1ccccc1OCC(F)(F)F [silodosin], the pKd [1] is listed as about 7.52, the pKd [6] is listed as 9.60 and the pKd [7] is listed as 5.49. The pKd [8] was 6.12, the pIC50 [9] was under 5.00 and the pIC50 [10] was under 5.00.
In the case of CN1CCN2c3ncccc3Cc3ccccc3C2C1 (stereo not drawn) [mirtazepine], the pKd ([5]; ref [51], read-out: affinity at human α2A receptors) is given as 6.90 to 7.10.
OCCN1CCN(CCC=C2c3ccccc3Sc3ccc(C(F)(F)F)cc32)CC1 [flupenthixol] showed an IC50 ([1]; ^3H‐CGP12177, log value) of over 10 µM, a pKd [7] of 6.10 and a pKd [11] of 6.28. The pKd [8] was 6.88, the pIC50 [9] was under 5.00 and the “Selectivity ratio α2A vs α2B (higher affinity for α2B)” value [10] was 1.5. The “Selectivity ratio α2A vs α2C (higher affinity for α2C)” value (from here on “Selectivity ratio α2A vs α2C”) [12] was 6.0 and the “Selectivity ratio α2B vs α2C (higher affinity for α2C)” value [12] was 4.0.
In the case of CN1CCN(c2ccc(Nc3c4ccccc4nc4ccccc34)cc2)CC1 [JP1302], the “Log KD β2” value [1, 15] is given as −5.58 ± 0.08, the “IC50 (log) β1, IC50>top concentration used” value [4] is given as “IC50>−4” and the pKd [6] is given as 6.21. The “α1A‐adrenoceptor affinity less than α2C affinity” value [12] was 5 fold.
In the case of CN1CCc2cccc(Cl)c2CC1 [SKF86466], the pKd [1] is listed as 6.60, the pKd ([5]; ref [23], read-out: human α2A‐affinity) is listed as 7.89 and the pKd [9] is listed as 5.92. For the same molecule, the pKd [13] was 6.29 and the “Log KD α2B” value [10] was −6.17 ± 0.047.
In the case of CCn1ccnc1CC1COc2ccccc2O1 (stereo not drawn) [imiloxan], the “Log KD β2” value [1, 15] was “no binding to −3”, the “Log KD β2” value ([1]; given as log KD (negative values), 3H-CGP12177 whole cell binding, CHO cells, mean ± s.e.mean) was “no binding -3” and the pKd [7] was 5.88. For the same molecule, the pKd [11] was 6.48, the pKd [8] was 6.27 and the pIC50 [9] was about 3.00. The “Selectivity ratio α2A vs α2B (higher affinity for α2B)” value [10] was 4.0, the “Selectivity ratio α2B vs α2C (higher affinity for α2B)” value [10] was 1.6 and the “Selectivity ratio α2A vs α2C” value [12] was 2.5.
With CCS(=O)(=O)N1CCC[C@@H]2CN3CCc4cc(OC)ccc4[C@@H]3C[C@@H]21 [RS79948] the “IC50 (log) β2, IC50>top concentration used” value ([1]; ^3H‐CGP12177, log value) was “IC50>−3”, the pKd [14] was 8.93 and the pKd [2] was 8.57. For the same molecule, the pKd [3] was 9.36, the “Log KD β1” value [4, 16] was −3.84 ± 0.05 and the “Selectivity ratio α2A vs α2B (higher affinity for α2A)” value ([13]; ratio of KD values) was 2.3. For the same molecule, the “Selectivity ratio α2A vs α2C” value [12] was 2.7 and the “Selectivity ratio α2B vs α2C (higher affinity for α2C)” value [12] was 6.2.
For CN(C)CC/C=C1\c2ccccc2CSc2ccccc21 [dosulepin], the IC50 ([1]; ^3H‐CGP12177, log value) was over 100 µM, the pKd [7] was 5.16 and the pKd [11] was 6.20. The pKd [8] was 5.63, the pIC50 [9] was under 4.00 and the “Selectivity ratio α2A vs α2B (higher affinity for α2B)” value [10] was 11.0. The “Selectivity ratio α2B vs α2C (higher affinity for α2B)” value [10] was 3.7 and the “Selectivity ratio α2A vs α2C” value [12] was 3.0.
